Test results: patent US20260000658A1, “METHODS FOR THE TREATMENT OF PROLIFERATIVE GLOMERULONEPHRITIS” (INSTITUT NATIONAL DE LA SANTÉ ET DE LA RECHERCHE MÉDICALE, priority 2022, published 2026)

Key:
Format in all cases: in vivo, mouse
[1] = test system: uninephrectomized PIK3CA^Pod-HO mice; assay: Uninephrectomized PIK3CA^Pod-HO mice, vehicle or alpelisib
Excerpt: (§1) A. Urinary albumin to creatinine ratio of PIK3CAWT and PIK3CAPod-HO mice 2 weeks following uninephrectomy and treated either with vehicle or alpelisib (n=8-9 mice per group). B. Serum creatinine levels, C. blood urea nitrogen (BUN) levels of PIK3CAWT and PIK3CAPod-HO mice 2 weeks following uninephrectomy and treated either with vehicle or alpelisib (n=8-9 mice per group). D. Glomerular lesion score of PIK3CAWT and PIK3CAPod-HO mice 2 weeks following uninephrectomy and treated either with vehicle or alpelisib (n=8-9 mice per group). E. Trajectory of albumin to creatinine ratio in the urine of PIK3CAPod-HO mice following uninephrectomy and treated with either vehicle or alpelisib (n=8-9 mice per group).
(§2) For the uninephrectomy experiments, the right kidneys were removed under anesthesia. For the medical treatment of mice, 50 mg kg −1 alpelisib (MedChem Tronica) in 1% carboxymethylcellulose (Sigma Aldrich)+0.5% Tween (Sigma Aldrich) or vehicle (1% carboxymethylcellulose+0.5% Tween) was administered by oral gavage daily for the indicated periods of time. Blood and urines were obtained at the indicated times. At euthanasia, blood, urines, kidneys were harvested. In some experiments, spleens, hearts, and bone marrow (BM) in femurs and tibias were harvested as well. Tissues were fixed in 4% paraformaldehyde and paraffin embedded for immunohistochemical analysis, snap-frozen in Optimal Cutting Temperature (OCT), or stored at −80° C. for mRNA or protein analysis.
(§3) Mouse blood counts were analyzed using a hematology analyzer (ProCyte Dx; IDEXX Laboratories). Mouse serum creatinine, blood urea nitrogen, urinary albumin, and urinary creatinine were evaluated using an AU5800 (Beckman Coulter) autoanalyzer. Serum anti-dsDNA measurement was performed according to the manufacturer's instruction using mouse anti-dsDNA ELISA kit (LBIS). The absorbance was measured using Ininite M Nano (TECAN).
(§4) 4-μm kidney sections were stained with periodic acid-Schiff (PAS), Masson's Trichrome (MT), Periodic acid metenamine silver (PAM) or Hematoxylin and Eosin (HE) staining for histological analysis. The degree of glomerular lesions was evaluated using the following scoring system: 0=no lesion, 1=affecting up to 25% of the glomerulus, 2=affecting 25-50% of the glomerulus, 3=affecting 50-75% of the glomerulus, and 4=affecting 75-100%. At least 50 glomeruli per sample were measured for each analysis. An indirect immunoperoxidase method was used for immunohistochemistry. Briefly, after deparaffinization, antigen retrieval was performed with citrate buffer (pH6) or Tris-EDTA buffer (pH9 or pH6) using microwave or high temperature (95° C.). Endogenous peroxidase activity was quenched using 3% hydrogen peroxide; nonspecific protein binding was blocked using 2.5% normal horse serum (Vector Laboratories), and endogenous biotin activity was quenched using the Avidin/Biotin Blocking Kit (Vector Laboratories). When using mouse primary antibodies on mouse tissue, Klear mouse blocking reagent (Diagomics) was used to block endogenous mouse immunoglobulins. After blocking, the tissue sections were incubated with the primary antibodies overnight at 4° C. The following primary antibodies were used: rabbit anti-Ki67 antibody (SP6; Thermo Fisher Scientific), rabbit anti-P-S6RP antibody (D68F8; Cell Signaling Technology), mouse anti-P-AKT (Ser473) antibody (587F11; Cell Signaling Technology), rabbit anti-P-AKT (Thr308) antibody (C31E5E; Cell Signaling Technology), mouse anti-S6RP antibody (54E2; Cell Signaling Technology), chicken anti-GFP antibody (Abcam), guinea pig anti-Nephrin antibody (GP-N2; Progen), rabbit anti-Podocin antibody (P0372; Sigma Aldrich), mouse anti-WTI antibody (6F-H2; DAKO). The corresponding secondary antibodies including anti-mouse IgG, anti-rabbit IgG, anti-guinea pig IgG, biotinylated anti-rabbit IgG (Vector Laboratories), and biotinylated anti-mouse IgG (Vector Laboratories) were applied. […]

uninephrectomized mice = assay: as above; conditions: PIK3CA^WT mice, 2 weeks treatment
Excerpt: as §1, §2, §3, §4

NZBWF1/J mice = assay: Uninephrectomized NZBWF1/J mice (lupus nephritis model), vehicle or alpelisib for 4 weeks
Excerpt: A. Urinary albumin to creatinine ratio B. Blood urea nitrogen level, C. kidney to body weight ratio of NZBWF1/J mice at the time of sacrifice (4 weeks following either sham operation or uninephrectomy followed by the treatment either with vehicle or alpelisib) (n=5-15 mice per group). D. Representative P-S6RP/Nephrin coimmunofluorescence staining of kidneys from 4 weeks following either sham operation or uninephrectomy followed by the treatment either with vehicle or alpelisib) (n=4-6 mice per group). Scale bar […]. E. P-S6RP mean intensity quantification (n=4-6 mice per group). F. Col3a, G. Col1a, and H. Tnfα quantification of qRT-PCR analysis in the kidney cortex of kidneys at the time of sacrifice (4 weeks following either sham operation or uninephrectomy followed by the treatment either with vehicle or alpelisib) (n=5-15 mice per group). I. Kaplan-Meier survival curves of MRL-lpr mice treated either with vehicle or alpelisib (n=13-14 mice per group). J. Urinary albumin to creatinine ratio of MRL-lpr mice treated either with vehicle or alpelisib from 8 weeks old till death (n=13-14 mice per group). K. Vehicle treated mice, and L. alpelisib treated mice of the trajectory of urinary albumin to creatinine ratio of MRL-lpr mice (n=13-14 mice per group).
as §2, §3
4-μm kidney sections were stained with periodic acid-Schiff (PAS), Masson's Trichrome (MT), Periodic acid metenamine silver (PAM) or Hematoxylin and Eosin (HE) staining for histological analysis. The degree of glomerular lesions was evaluated using the following scoring system: 0=no lesion, 1=affecting up to 25% of the glomerulus, 2=affecting 25-50% of the glomerulus, 3=affecting 50-75% of the glomerulus, and 4=affecting 75-100%. At least 50 glomeruli per sample were measured for each analysis. An indirect immunoperoxidase method was used for immunohistochemistry. Briefly, after deparaffinization, antigen retrieval was performed with citrate buffer (pH6) or Tris-EDTA buffer (pH9 or pH6) using microwave or high temperature (95° C.). Endogenous peroxidase activity was quenched using 3% hydrogen peroxide; nonspecific protein binding was blocked using 2.5% normal horse serum (Vector Laboratories), and endogenous biotin activity was quenched using the Avidin/Biotin Blocking Kit (Vector Laboratories). When using mouse primary antibodies on mouse tissue, Klear mouse blocking reagent (Diagomics) was used to block endogenous mouse immunoglobulins. After blocking, the tissue sections were incubated with the primary antibodies overnight at 4° C. […]

[2] = 2 weeks after uninephrectomy, vs vehicle
[3] = 4 weeks treatment, at sacrifice

Structure (SMILES): Cc1nc(NC(=O)N2CCC[C@H]2C(N)=O)sc1-c1ccnc(C(C)(C)C(F)(F)F)c1 [alpelisib, Alpelisib]
- expression of podocytes markers [1, 2]: higher expression of podocytes markers
- glomerular lesion score [1, 2]: preserved glomerular
- kidney function (serum creatinine, BUN) [1, 2]: better kidney function
- podocyte AKT/mTOR pathway activation [1, 2]: decreased podocyte AKT/mTOR pathway activation
- tubular dilation [1, 2]: fewer tubular dilation
- proteinuria (urinary albumin to creatinine ratio) ([1]; nephrectomy at 8 weeks old, 2 weeks treatment): significantly decreased
- kidney lesions (title of FIG. 2) ([1]; uninephrectomized PIK3CAPod-HO mice): improves kidney lesions
- phenotype of uninephrectomized PIK3CA^WT control mice (uninephrectomized mice): no particular phenotype, without proteinuria or kidney dysfunction
- anemia (NZBWF1/J mice; 4 weeks treatment): partial correction of anemia
- glomerular AKT/mTOR pathway activation (P-S6RP) (NZBWF1/J mice; 4 weeks treatment): blunted
- glomerular IgG, IgM and C3 deposits (NZBWF1/J mice; 4 weeks treatment): significantly reduced
- level of dsDNA (NZBWF1/J mice; 4 weeks treatment): tendency to decrease
- platelet count (NZBWF1/J mice; 4 weeks treatment): significant increase in platelet count
- podocyte differentiation markers (NZBWF1/J mice; 4 weeks treatment): significantly improved
- blood urea nitrogen levels (NZBWF1/J mice; [3]): lower blood urea nitrogen levels
- kidney to body weight ratio (NZBWF1/J mice; [3]): significantly reduced
- glomeruli, histological level (NZBWF1/J mice; 4 weeks treatment, vs vehicle): preserved glomeruli
- kidney lesions (title of FIG. 4) (NZBWF1/J mice; Lupus Nephritis models (NZBWF1/J and MRL-lpr)): improves kidney lesions
- spleen size (NZBWF1/J mice; both sham and uninephrectomized mice): significantly reduced
- albuminuria (urinary albumin to creatinine ratio) (NZBWF1/J mice; females, uninephrectomy at 24 weeks, 4 weeks treatment, at sacrifice): significantly less albuminuria
- Col1a and Col3a mRNA expression (NZBWF1/J mice; kidney cortex, qRT-PCR): reduced
- TNFa mRNA expression (NZBWF1/J mice; kidney cortex, qRT-PCR): reduced
- progression of glomerular lesions (NZBWF1/J mice; sacrifice vs kidney removed at uninephrectomy): remained stable
